Laboratory results published in US20230151003A1, “COMPOUNDS AND METHODS OF USE” (Exelixis, Inc., priority 2020, published 2023).

What follows are compounds tested against T1, Mer (Homo sapiens, UniProt Q12866) (assay: Mer autophosphorylation ELISA in transient transfected 293A cells). Conditions: Table 3 Cellular Activities; MERTK-transfected 293A cells, phospho-Mer ELISA.
T1 construct: host or cells: 293A cells (Thermo Fisher #R70507)
T1 sequence (Q12866 21-999): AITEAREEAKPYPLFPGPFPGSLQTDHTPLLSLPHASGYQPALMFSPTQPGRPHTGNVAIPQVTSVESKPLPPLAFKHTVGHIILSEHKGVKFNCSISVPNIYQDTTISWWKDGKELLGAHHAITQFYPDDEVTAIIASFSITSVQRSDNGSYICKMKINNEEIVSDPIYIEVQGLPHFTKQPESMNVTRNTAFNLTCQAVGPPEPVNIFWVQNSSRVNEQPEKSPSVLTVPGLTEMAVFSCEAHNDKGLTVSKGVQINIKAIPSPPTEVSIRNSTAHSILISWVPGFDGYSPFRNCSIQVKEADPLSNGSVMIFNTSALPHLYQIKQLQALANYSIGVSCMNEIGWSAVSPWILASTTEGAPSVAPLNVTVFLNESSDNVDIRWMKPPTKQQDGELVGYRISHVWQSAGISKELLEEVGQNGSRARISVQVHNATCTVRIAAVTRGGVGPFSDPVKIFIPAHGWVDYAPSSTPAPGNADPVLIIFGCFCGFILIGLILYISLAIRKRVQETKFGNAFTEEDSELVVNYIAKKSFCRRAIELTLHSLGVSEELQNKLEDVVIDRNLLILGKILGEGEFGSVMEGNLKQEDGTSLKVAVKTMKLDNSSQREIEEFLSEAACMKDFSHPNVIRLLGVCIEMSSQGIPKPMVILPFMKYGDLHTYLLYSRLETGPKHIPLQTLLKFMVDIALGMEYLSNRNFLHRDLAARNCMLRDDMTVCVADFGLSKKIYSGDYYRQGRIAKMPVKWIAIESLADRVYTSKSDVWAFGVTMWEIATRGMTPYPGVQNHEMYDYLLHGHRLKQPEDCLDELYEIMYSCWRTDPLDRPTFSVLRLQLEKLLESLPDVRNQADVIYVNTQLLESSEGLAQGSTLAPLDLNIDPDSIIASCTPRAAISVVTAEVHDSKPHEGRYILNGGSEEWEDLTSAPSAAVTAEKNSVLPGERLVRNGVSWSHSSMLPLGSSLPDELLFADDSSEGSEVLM
Assay type: cell-based
How it was run: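 Phospho-Mer quantified by ELISA in lysates of transiently MERTK-transfected 293A cells after 1 h exposure to an 8-point compound series, serum-free, 0.3% DMSO. Activity normalized between DMSO-treated (100%) and reference inhibitor-treated (0%) lysates; IC50 via 4-parameter nonlinear regression.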

IC50, ≤ 100 nM:
COc1cnc2c(Oc3ccc(NC(=O)c4cnc(C)c(-c5ccc(C)o5)c4O)cc3F)ccnc2c1 [Compound 97, N-[3-Fluoro-4-[(7-methoxy-1,5-naphthyridin-4-yl)oxy]phenyl]-4-hydroxy-6-methyl-5-(5-methyl-2-furyl)pyridine-3-carboxamide]
COc1cc2nccc(Oc3ccc(NC(=O)c4c(C)nc(C)c(-c5cc(C)cs5)c4O)cc3F)c2nc1OC [Compound 137, N-[4-[(6,7-Dimethoxy-1,5-naphthyridin-4-yl)oxy]-3-fluorophenyl]-4-hydroxy-2,6-dimethyl-5-(4-methylthiophen-2-yl)pyridine-3-carboxamide]
COc1cc2nccc(Oc3ccc(NC(=O)c4c(C)nc(C)c(-c5ccoc5)c4O)cc3F)c2nc1OC [Compound 112, N-[4-[(6,7-Dimethoxy-1,5-naphthyridin-4-yl)oxy]-3-fluoro-phenyl]-5-(3-furyl)-4-hydroxy-2,6-dimethyl-pyridine-3-carboxamide]
COc1cnc2c(Oc3ccc(NC(=O)c4c(C)n(C)c(C)c(-c5cccs5)c4=O)cc3F)ccnc2c1 [Compound 166, N-[3-Fluoro-4-[(7-methoxy-1,5-naphthyridin-4-yl)oxy]phenyl]-1,2,6-trimethyl-4-oxo-5-thiophen-2-ylpyridine-3-carboxamide]
COCc1nc(C)c(-c2cccs2)c(O)c1C(=O)Nc1ccc(Oc2ccnc3cc(OC)c(OC)nc23)c(F)c1 [Compound 115, N-[4-[(6,7-Dimethoxy-1,5-naphthyridin-4-yl)oxy]-3-fluorophenyl]-4-hydroxy-2-(methoxymethyl)-6-methyl-5-thiophen-2-ylpyridine-3-carboxamide]
C=Cc1ccc(-c2c(C)ncc(C(=O)Nc3ccc(Oc4ccnc5cc(OC)c(OC)nc45)c(F)c3)c2O)o1 [Compound 151, N-[4-[(6,7-Dimethoxy-1,5-naphthyridin-4-yl)oxy]-3-fluorophenyl]-5-(5-ethenylfuran-2-yl)-4-hydroxy-6-methylpyridine-3-carboxamide]
COc1cc2nccc(Oc3ccc(NC(=O)c4c(C)ncc(-c5cccs5)c4O)cc3F)c2nc1OC [Compound 123, N-[4-[(6,7-Dimethoxy-1,5-naphthyridin-4-yl)oxy]-3-fluorophenyl]-4-hydroxy-2-methyl-5-thiophen-2-ylpyridine-3-carboxamide]
COc1cc2nccc(Oc3ccc(NC(=O)c4cnc(C)c(-c5ccc(C)s5)c4O)cc3F)c2nc1OC [Compound 94, N-[4-[(6,7-Dimethoxy-1,5-naphthyridin-4-yl)oxy]-3-fluoro-phenyl]-4-hydroxy-6-methyl-5-(5-methyl-2-thienyl) pyridine-3-carboxamide]
COc1cc2nccc(Oc3ccc(NC(=O)c4c(C)n(C)c(C)c(-c5ccco5)c4=O)cc3)c2nc1OC [Compound 164, N-[4-[(6,7-Dimethoxy-1,5-naphthyridin-4-yl)oxy]phenyl]-5-(furan-2-yl)-1,2,6-trimethyl-4-oxopyridine-3-carboxamide]
COc1cnc2c(Oc3ccc(NC(=O)c4cn(CCF)c(C)c(-c5cccs5)c4=O)cc3F)ccnc2c1 [Compound 331, 1-(2-Fluoroethyl)-N-[3-fluoro-4-[(7-methoxy-1,5-naphthyridin-4-yl)oxy]phenyl]-6-methyl-4-oxo-5-thiophen-2-ylpyridine-3-carboxamide]
COc1cnc2c(Oc3ccc(NC(=O)c4cn(CCF)c(C)c(-c5ccc(C)s5)c4=O)cc3F)ccnc2c1 [Compound 329, 1-(2-Fluoroethyl)-N-[3-fluoro-4-[(7-methoxy-1,5-naphthyridin-4-yl)oxy]phenyl]-6-methyl-5-(5-methylthiophen-2-yl)-4-oxopyridine-3-carboxamide]
COc1cc2nccc(Oc3ccc(NC(=O)c4c(C)nc(C)c(-c5cc(C(F)(F)F)nn5C)c4O)cc3F)c2nc1OC [Compound 138]
COCc1nc(C)c(-c2ccc(C)o2)c(O)c1C(=O)Nc1ccc(Oc2ccnc3cc(OC)c(OC)nc23)c(F)c1 [Compound 117, N-[4-[(6,7-Dimethoxy-1,5-naphthyridin-4-yl)oxy]-3-fluorophenyl]-4-hydroxy-2-(methoxymethyl)-6-methyl-5-(5-methylfuran-2-yl)pyridine-3-carboxamide]
COc1cc2nccc(Oc3ccc(NC(=O)c4cnc(C)c(-c5cc(C)cs5)c4O)cc3F)c2nc1OC [Compound 91, N-[4-[(6,7-Dimethoxy-1,5-naphthyridin-4-yl)oxy]-3-fluoro-phenyl]-4-hydroxy-6-methyl-5-(4-methyl-2-thienyl) pyridine-3-carboxamide]
COc1cc2nccc(Oc3ccc(NC(=O)c4c(C)n(C)c(C)c(-c5ccco5)c4=O)cc3F)c2nc1OC [Compound 160, N-[4-[(6,7-Dimethoxy-1,5-naphthyridin-4-yl)oxy]-3-fluorophenyl]-5-(furan-2-yl)-1,2,6-trimethyl-4-oxopyridine-3-carboxamide]
CCc1ccc(-c2c(C)ncc(C(=O)Nc3ccc(Oc4ccnc5cc(OC)c(OC)nc45)c(F)c3)c2O)o1 [Compound 153, N-[4-[(6,7-Dimethoxy-1,5-naphthyridin-4-yl)oxy]-3-fluorophenyl]-5-(5-ethylfuran-2-yl)-4-hydroxy-6-methylpyridine-3-carboxamide]
COc1cc2nccc(Oc3ccc(NC(=O)c4cnc(C)c(-c5ccsc5)c4O)cc3F)c2nc1OC [Compound 93, N-[4-[(6,7-Dimethoxy-1,5-naphthyridin-4-yl)oxy]-3-fluoro-phenyl]-4-hydroxy-6-methyl-5-(3-thienyl)pyridine-3-carboxamide]
COc1cnc2c(Oc3ccc(NC(=O)c4cnc(C)c(-c5ccoc5)c4O)cc3F)ccnc2c1 [Compound 99, N-[3-Fluoro-4-[(7-methoxy-1,5-naphthyridin-4-yl)oxy]phenyl]-5-(3-furyl)-4-hydroxy-6-methyl-pyridine-3-carboxamide]
COc1cc2nccc(Oc3ccc(NC(=O)c4c(C)n(C)c(C)c(-c5cccs5)c4=O)cc3F)c2nc1OC [Compound 168, N-[4-[(6,7-Dimethoxy-1,5-naphthyridin-4-yl)oxy]-3-fluorophenyl]-1,2,6-trimethyl-4-oxo-5-thiophen-2-ylpyridine-3-carboxamide]
COc1cc2nccc(Oc3ccc(NC(=O)c4c(C)ncc(-c5sccc5C)c4O)cc3F)c2nc1OC [Compound 126, N-[4-[(6,7-Dimethoxy-1,5-naphthyridin-4-yl)oxy]-3-fluorophenyl]-4-hydroxy-2-methyl-5-(3-methylthiophen-2-yl)pyridine-3-carboxamide]
COc1cc2nccc(Oc3ccc(NC(=O)c4c(C)ncc(-c5ccc(C)o5)c4O)cc3F)c2nc1OC [Compound 120, N-[4-[(6,7-Dimethoxy-1,5-naphthyridin-4-yl)oxy]-3-fluorophenyl]-4-hydroxy-2-methyl-5-(5-methylfuran-2-yl)pyridine-3-carboxamide]
COc1cc2nccc(Oc3ccc(NC(=O)c4c(C)nc(C)c(-c5ccc(C)s5)c4O)cc3F)c2nc1OC [Compound 111, N-[4-[(6,7-Dimethoxy-1,5-naphthyridin-4-yl)oxy]-3-fluoro-phenyl]-4-hydroxy-2,6-dimethyl-5-(5-methyl-2-thienyl)pyridine-3-carboxamide]
COc1ccc2nccc(Oc3ccc(NC(=O)c4cnc(C)c(-c5cccs5)c4O)cc3F)c2n1 [Compound 128, N-[3-Fluoro-4-[(6-methoxy-1,5-naphthyridin-4-yl)oxy]phenyl]-4-hydroxy-6-methyl-5-thiophen-2-ylpyridine-3-carboxamide]
COc1cc2nccc(Oc3ccc(NC(=O)c4cnc(C)c(-c5ccoc5)c4O)cc3F)c2nc1OC [Compound 95, N-[4-[(6,7-Dimethoxy-1,5-naphthyridin-4-yl)oxy]-3-fluoro-phenyl]-5-(3-furyl)-4-hydroxy-6-methyl-pyridine-3-carboxamide]
